Patent publication US12474342B2, “Methods for treating cancer and the use of biomarkers as a predictor of clinical sensitivity to therapies” (CELGENE CORPORATION, priority 2016, dated 2025)
pIC50: −log10 of the molar value.

Assays:
[1] = test system: p-eIF2α, ATF4, ATF3, CHOP/DDIT3, cleaved Caspases; experiment: UPR / ATF4 pathway and apoptosis markers in U937 cells (wild type and CRISPR knockouts); format: cell-based, human; settings: for ATF4 pathway and apoptosis: 4 μM
From the text: PERK, one of the four eIF2α, kinases, was knocked out in U937 cells by CRISPR-mediated gene editing using PERK−/− Construct 1 or PERK−/− Construct 2.
GCN2, one of the four eIF2α, kinases, was knocked out in U937 cells by CRISPR-mediated gene editing using GCN2 CRISPR Construct 1 or GCN2 CRISPR Construct 4.

[2] = test system: XBP1; experiment: XBP1 assay in U937 cells; format: cell-based, human; settings: 0.5 μM TG for 6 hours or 4 μM Compound D for 8, 16, or 32 hours
Description: IRE1, a kinase that activates the XBP1 pathway, was knocked out in U937 cells by CRISPR-mediated gene editing using IRE1 CRISPR constructs. Wild type U937 cells or IRE1 CRISPR knockout U937 cells were treated with 0.5 μM TG for 6 hours or 4 μM Compound D for 8, 16, or 32 hours, then subject to XBP1 assay.

[3] = target: T1, GSPT1 (Homo sapiens, UniProt P15170+Q96SW2); experiment: GSPT1 protein reduction, western analysis, AML patient PBMCs; format: cell-based; set-up: reduction in GSPT1 protein level was evaluated in human normal PBMCs; endogenous in cells; host or cells: primary PBMCs from normal donors (ID 4328, 4379) and AML patients (ID 11SH, 09P6); settings: PBMC sample 11SH (AML)
[4] = test system: U-937 cells; experiment: Anti-proliferation CTG assay, U-937; format: cell-based, human
Description: (§1) A plethora of AML cell lines were treated with serial dilutions of Compound D. IC50 value of the anti-proliferation effect of Compound D (as determined in 72-hour CTG assays) in each cell line is summarized in Table 1.
The effect of overexpression of GSPT1 on the anti-proliferative effect of Compound D and Compound E was determined in human histiocytic lymphoma cell line U937 and human leukemia cell line MOLM13. Treatment compounds (e.g., Compound D or Compound E) were titrated from 0.001 μM to 10 μM. Cell proliferation was measured by CellTiter-Glo cell viability assay at 48 hours after treatment. […] However, when exogenous GSPT1 was overproduced via the EF1α promoter, as shown in FIGS. 5A-5D, the anti-proliferative effect of Compound D and Compound E reduced.

[5] = test system: MV-4-11 cells; experiment: Anti-proliferation 72-hour CTG assay, MV-4-11; format: cell-based; settings: Homo sapiens, MV4-11; MV-4-11, 72-hour CTG assay; read-out: IC50 of the anti-proliferative effect
Description: as §1

[6] = test system: p-eIF2α; experiment: p-eIF2α immunoblot, OCI-AML2; format: cell-based, human; settings: 300 μg/ml G418 or 200 nM Compound D
Description: It is known that amino acid starvation causes GCN2 activation, which phosphorylates eIF2α. Because GSPT1 mediates normal translation termination, it is hypothesized that depletion of GSPT1 by Compound D may cause readthrough of stop codons. Whether the translational readthrough induced by Compound D contributes to the increased levels of p-eIF2α was investigated. OCI-AML2 cells stably expressing the Fluc/Nluc-G36A readthrough reporter were treated with 300 μg/ml G418 or 200 nM Compound D for 2, 4, 6, 8, 10, 12, or 16 hours. The levels of p-eIF2α were measured by immunoblot analysis. AML2 readthrough assay was conducted to measure the readthrough reporter.

[7] = test system: healthy donor PBMCs; experiment: Anti-proliferation, healthy donor PBMCs; format: cell-based; settings: Homo sapiens, PBMC; healthy donor PBMCs (data not shown)
[8] = test system: ATF3 and DDIT3 mRNA; experiment: ATF3 and DDIT3 mRNA induction, HNT-34; format: cell-based, human
From the text: The kinetics of induction of mRNA for UPR factors ATF3 and DDIT3 in HNT-34 cells also strongly differed from that in PBMCs. […] This is also consistent with the reduced cytotoxicity observed for Compound D in normal adult lymphocytes as compared with tumor cells (data not shown).

[9] = target: T1, GSPT1; experiment: GSPT1 protein reduction, western analysis, OCI-AML2; format: cell-based; set-up: reduction in GSPT1 protein level was evaluated in human normal PBMCs; endogenous in cells; host or cells: primary PBMCs from normal donors (ID 4328, 4379) and AML patients (ID 11SH, 09P6); settings: for degradation of GSPT1: 100 nM
Description: Thus, Compound D-induced GSPT1 degradation is also CRBN-dependent.
The reduction in the level of GSPT1 protein was concentration-dependent over the range of 3 to 1000 nM in eight of the nine AML cell lines and over the range of 300 to 1000 nM in one relatively insensitive AML cell line. The time course of the reduction in GSPT1 by Compound D also was studied for up to 48 hours. The progressive degradation of GSPT1 over the course of 1 to 20 hours was evident in the presence of all concentrations of Compound D studied from 3 to 300 nM in HNT-34, HL-60, and ML-2 cells, with little GSPT1 remaining by 20 hours at 100 or 300 nM Compound D in HNT-34 or HL-60 cells (FIG. 34 and FIG. 35C). Time-dependent reduction in GSPT1 was also observed in KG-1 and OCI-AML2 cells at 3 to 1000 nM Compound D, with little GSPT1 remaining in KG-1 cells at 100 to 300 nM at 24 hours or in OCI-AML2 cells at 300 and 1000 nM at 24 hours (FIG. 35D). Loss of GSPT1 occurred more slowly in Kasumi-1, AML-193, and F36-P cells.
Compound D-mediated GSPT1 reduction at 8 hours was compared to induction of caspase 3/7 activation (apoptosis) at 12, 24, and 48 hour time points in these nine AML cell lines. […] A positive association (r^2=0.50; R=0.71; p value=4.86E-002) was observed between the level of GSPT1 reduction and apoptosis induction in the AML cell panel (FIG. 36), with >90% GSPT1 reduction correlating with induction of apoptosis.

T1 sequence (P15170 1-637 isoform P15170-3): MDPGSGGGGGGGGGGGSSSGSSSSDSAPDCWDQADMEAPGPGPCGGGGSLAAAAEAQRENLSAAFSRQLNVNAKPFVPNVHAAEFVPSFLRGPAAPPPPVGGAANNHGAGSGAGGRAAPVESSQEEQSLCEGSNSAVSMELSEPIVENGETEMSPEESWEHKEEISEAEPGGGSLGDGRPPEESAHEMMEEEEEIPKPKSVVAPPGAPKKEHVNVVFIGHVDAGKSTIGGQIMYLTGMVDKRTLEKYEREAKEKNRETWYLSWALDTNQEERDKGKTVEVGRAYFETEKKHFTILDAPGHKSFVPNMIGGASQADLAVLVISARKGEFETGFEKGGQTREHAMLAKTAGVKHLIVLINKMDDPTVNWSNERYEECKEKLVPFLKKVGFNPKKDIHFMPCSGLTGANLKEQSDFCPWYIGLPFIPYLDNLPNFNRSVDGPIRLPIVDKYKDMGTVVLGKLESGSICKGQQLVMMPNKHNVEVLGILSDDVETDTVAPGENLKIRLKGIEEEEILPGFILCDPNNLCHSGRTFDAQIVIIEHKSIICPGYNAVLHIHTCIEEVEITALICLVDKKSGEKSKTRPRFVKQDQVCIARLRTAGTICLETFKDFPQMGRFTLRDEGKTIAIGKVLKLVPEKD
T1 sequence (Q96SW2 whole entry): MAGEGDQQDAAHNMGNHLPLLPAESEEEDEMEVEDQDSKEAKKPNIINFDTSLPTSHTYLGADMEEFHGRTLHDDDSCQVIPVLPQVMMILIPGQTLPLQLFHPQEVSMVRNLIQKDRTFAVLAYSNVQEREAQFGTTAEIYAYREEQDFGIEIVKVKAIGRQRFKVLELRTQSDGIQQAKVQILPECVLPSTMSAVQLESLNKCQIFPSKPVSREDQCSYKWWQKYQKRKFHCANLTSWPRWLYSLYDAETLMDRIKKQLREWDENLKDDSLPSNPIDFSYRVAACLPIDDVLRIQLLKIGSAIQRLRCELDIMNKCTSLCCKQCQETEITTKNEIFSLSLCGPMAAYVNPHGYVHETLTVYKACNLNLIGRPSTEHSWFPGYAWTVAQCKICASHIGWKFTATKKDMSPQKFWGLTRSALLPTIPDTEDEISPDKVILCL
T1 sequence (Q16531 whole entry partner): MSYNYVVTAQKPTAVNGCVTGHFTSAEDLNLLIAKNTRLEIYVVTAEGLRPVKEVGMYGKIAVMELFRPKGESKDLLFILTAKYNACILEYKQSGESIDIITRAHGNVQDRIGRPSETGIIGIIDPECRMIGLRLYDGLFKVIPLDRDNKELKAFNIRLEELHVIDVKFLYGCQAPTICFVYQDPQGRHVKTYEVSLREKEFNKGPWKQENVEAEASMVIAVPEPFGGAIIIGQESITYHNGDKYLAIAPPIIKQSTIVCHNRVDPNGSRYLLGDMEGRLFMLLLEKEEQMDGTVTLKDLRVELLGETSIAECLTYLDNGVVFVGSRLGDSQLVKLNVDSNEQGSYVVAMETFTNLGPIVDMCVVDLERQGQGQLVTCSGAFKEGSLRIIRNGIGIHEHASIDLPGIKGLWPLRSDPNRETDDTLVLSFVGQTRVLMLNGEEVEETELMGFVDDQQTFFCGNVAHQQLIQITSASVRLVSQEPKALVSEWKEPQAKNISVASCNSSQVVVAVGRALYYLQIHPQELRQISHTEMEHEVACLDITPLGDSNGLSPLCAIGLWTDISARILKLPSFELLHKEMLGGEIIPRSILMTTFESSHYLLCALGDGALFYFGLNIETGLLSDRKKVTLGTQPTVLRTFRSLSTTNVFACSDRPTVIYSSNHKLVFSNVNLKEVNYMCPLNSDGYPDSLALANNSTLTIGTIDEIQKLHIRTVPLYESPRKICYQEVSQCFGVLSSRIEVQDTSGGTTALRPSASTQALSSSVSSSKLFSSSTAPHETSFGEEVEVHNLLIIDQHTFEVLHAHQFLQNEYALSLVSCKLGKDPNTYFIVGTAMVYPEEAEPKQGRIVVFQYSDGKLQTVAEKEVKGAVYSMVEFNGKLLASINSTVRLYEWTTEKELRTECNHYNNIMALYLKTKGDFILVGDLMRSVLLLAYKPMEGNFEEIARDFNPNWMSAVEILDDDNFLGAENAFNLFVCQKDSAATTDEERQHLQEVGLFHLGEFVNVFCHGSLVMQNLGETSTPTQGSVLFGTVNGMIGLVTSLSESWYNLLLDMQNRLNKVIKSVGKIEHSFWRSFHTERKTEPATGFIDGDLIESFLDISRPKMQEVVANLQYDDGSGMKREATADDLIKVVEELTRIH

`O=C1CCC(N2Cc3cc(CNC(=O)C(F)(F)c4ccc(Cl)cc4)ccc3C2=O)C(=O)N1` (stereo not shown) [Compound D, 2-(4-chlorophenyl)-N-((2-(2,6-dioxopiperidin-3-yl)-1-oxoisoindolin-5-yl)methyl)-2,2-difluoroacetamide] was tested, and the “ATF4 pathway and apoptosis” value ([1]; GCN2 knockout U937 cells) was “blocked”, the “ATF4 pathway and apoptosis” value ([1]; wild type U937 cells) was “induced the ATF4 pathway and apoptosis” and the apoptosis ([1]; wild type and PERK knockout U937 cells, 2 μM) was “induced apoptosis”. For the same compound, the XBP1 pathway [2] was “activated the XBP1 pathway”, the “Reduction in GSPT1 Protein Level” value ([3]; 100 nM Compound D, 8 hours) was 86% and the “Reduction in GSPT1 Protein Level” value ([3]; 100 nM Compound D, 22 hours) was 100%. For the same compound, the “Reduction in GSPT1 Protein Level” value ([3]; 300 nM Compound D, 8 hours) was 100%, the “Reduction in GSPT1 Protein Level” value ([3]; 300 nM Compound D, 22 hours) was 100% and the pIC50 ([4]; Homo sapiens, U-937, 72-hour CTG assay, read-out: IC50 of the anti-proliferative effect) was 7.13. The anti-proliferative effect ([4]; U937 CRBN -/- cells, 48 hours) was “completely abolished”, the “cell proliferation (CellTiter-Glo)” value ([4]; U937 parental cells, 0.001 μM to 10 μM, 48 hours) was “inhibited cell proliferation” and the pIC50 [5] was 7.54. The “levels of p-eIF2α” value [6] was “increased the levels”, the pIC50 [7] was under 5.00 and the “time of induction of ATF3 and DDIT3 mRNA” value [8] was at most 8 h. For the same compound, the “degradation of GSPT1” value ([9]; CRBN -/- OCI-AML2 cells) was “could not induce degradation”, the “reduction of GSPT1 protein levels” value ([9]; OC-AML2, 100 nM Compound D, 8 hours) was “greater than 800” and the “Percent Reduction at 100 nM Compound D GSPTI (8 hr)” value ([9]; OCI-AML2, 100 nM, 8 hr) was 89%. For the same compound, the “degradation of GSPT1” value ([9]; parental OCI-AML2 cells) was “induced degradation”.
